Results as given in patent US6417231B1, “Method and composition for delivering therapeutically effective amounts of pyruvate to a mammal” (priority 1996, dated 2002).
Where “and” joins values, the source holds several entries; their conditions need not be identical. Equal entries are not always repeated.

Columns and labels:
[1] = Time course of blood pyruvate concentration after oral gavage (bioavailability of pyruvate); assay type: in vivo, male Sprague-Dawley rats; details: rat; for Blood pyruvate concentration: single animals
Description: The basic measurement is the time course of serum pyruvate concentration following oral administration of tripyruvin, compared with that following oral administration of sodium pyruvate or a placebo.
Six male Sprague-Dawley rats, weighing 380±28 grams (mean±standard deviation), were used in the initial animal experiments. The rats were divided into three groups of two rats each, one group of two for the experimental treatment, one group for the conventional sodium pyruvate treatment, and one group for placebo. The rats were housed in hanging wire cages (two per cage) in a room maintained at 22° C., and were kept on a twelve-hour light/dark cycle with lights on at 7 AM. All animals had free access to water and to standard laboratory rodent chow; except that on nights before an experiment food was removed at 6 PM.
An initial time-course experiment was performed with the crude reaction mixture, in which tripyruvin and free pyruvate were both present (i.e., with the product of “Step 4” n the synthesis described above, without the further purification of “Step 5.”) 1.14 g of this mixture (76% sodium pyruvate, 24% tripyruvin=0.79 total pyruvate) in 2 mL sterile water was fed by gavage in a single dose. For comparison, rats were fed an equivalent amount of pyruvate as sodium pyruvate in water; or were fed a placebo comprising water only. Blood samples (250 μL) taken from a snipped tail vein were collected before feeding, and at 60, 90, 120, and 150 minutes after gavage feeding.
The assay for serum pyruvate concentration was a modification of the Sigma NADH-NAD assay. Collected blood samples were diluted 1:3 in cold 8% perchloric acid (aqueous), and the precipitates were vortexed and centrifuged. Supernatant (100 μL) was pipetted into a microtiter plate. Trizma base (25 μL) was pipetted into the plate, followed by 25 μL of aqueous NADH solution (1 g/2.2 mL). The absorbance of the solution at 340 nm was then measured as a baseline. […] dehydrogenase (50 μL, 10 U/mL) was then pipetted into the plate, and the plate was incubated at 37° C. for 3-5 minutes. Absorbance at 340 nm was again measured (to assay the extent of the reaction NADH→NAD+H^+). Standards and two levels of quality control samples were run with each plate. Results are shown in Table 1 for each of the six rats.

Solubility in water = assay type: physicochemical
Description: After purification, the identity of the tripyruvin was confirmed by laser-desorption mass spectrometry, elemental analysis, and ^1H nuclear magnetic resonance.

[2] = oral gavage, compared with sodium pyruvate

Row | Structure (SMILES) | Blood pyruvate concentration ([1]; 60 min after single oral gavage dose in 2 mL water) | Blood pyruvate concentration ([1]; 90 min after single oral gavage dose in 2 mL water) | Blood pyruvate concentration ([1]; 120 min after single oral gavage dose in 2 mL water) [mM] | Blood pyruvate concentration ([1]; 150 min after single oral gavage dose in 2 mL water) | Blood pyruvate concentration ([1]; time 0 min (before gavage feeding)) | Bioavailability of pyruvate [1, 2] | Rise in blood pyruvate levels [1, 2] | Solubility in water (Solubility in water)
1 | CC(=O)C(=O)[O-].[Na+] [sodium pyruvate] | 0.07 mM and 0.10 mM | 0.07 mM and 0.09 mM | 0.12 | 0.12 mM and 0.16 mM | 0.07 mM and 0.06 mM | – | – | –
2 | CC(=O)C(=O)OCC(COC(=O)C(C)=O)OC(=O)C(C)=O [tripyruvin, tripyruvyl glycerol] | – | – | – | – | – | higher | more rapid rise | freely soluble
